The target of experiment [1] is T1, FAK (Homo sapiens (Human), UniProt Q05397). The experiment is described as follows: FAK Kinase Assay (TR-FRET, LanthaScreen). In kind it is biochemical. The settings on record: FAK 1 nM, ATP 6.8 μM, fluorescein-polyGT 0.2 μM, 30 min; read-out: IC50, FAK Inhibition. As to the method:
The inhibitory activity of a compound against FAK was determined in a buffer containing 5 mM HEPES, pH 7.5, 0.01% Triton, 0.5 mM EGTA, and 0.01% BRIJ™-35 in a 384-well assay plate. The assay was carried out in the presence of the FAK at 1 nM and ATP at 6.8 μM using fluorescein-polyGT (0.2 μM) as an FAK substrate. Each assay mixture was incubated at room temperature for 30 min. A LANTHASCREEN® Tb-PY20 antibody was added to each well to stop the enzymatic reaction. The plate was incubated at room temperature for 60 min before reading on an ENVISION using TR-FRET module (excitation at 340 nm and emission at 520 nm and 495 nm).
In general terms: Time-resolved FRET reads energy transfer from a long-lived donor to a nearby acceptor.
Target sequence in this assay (Q05397 whole entry, species assumed): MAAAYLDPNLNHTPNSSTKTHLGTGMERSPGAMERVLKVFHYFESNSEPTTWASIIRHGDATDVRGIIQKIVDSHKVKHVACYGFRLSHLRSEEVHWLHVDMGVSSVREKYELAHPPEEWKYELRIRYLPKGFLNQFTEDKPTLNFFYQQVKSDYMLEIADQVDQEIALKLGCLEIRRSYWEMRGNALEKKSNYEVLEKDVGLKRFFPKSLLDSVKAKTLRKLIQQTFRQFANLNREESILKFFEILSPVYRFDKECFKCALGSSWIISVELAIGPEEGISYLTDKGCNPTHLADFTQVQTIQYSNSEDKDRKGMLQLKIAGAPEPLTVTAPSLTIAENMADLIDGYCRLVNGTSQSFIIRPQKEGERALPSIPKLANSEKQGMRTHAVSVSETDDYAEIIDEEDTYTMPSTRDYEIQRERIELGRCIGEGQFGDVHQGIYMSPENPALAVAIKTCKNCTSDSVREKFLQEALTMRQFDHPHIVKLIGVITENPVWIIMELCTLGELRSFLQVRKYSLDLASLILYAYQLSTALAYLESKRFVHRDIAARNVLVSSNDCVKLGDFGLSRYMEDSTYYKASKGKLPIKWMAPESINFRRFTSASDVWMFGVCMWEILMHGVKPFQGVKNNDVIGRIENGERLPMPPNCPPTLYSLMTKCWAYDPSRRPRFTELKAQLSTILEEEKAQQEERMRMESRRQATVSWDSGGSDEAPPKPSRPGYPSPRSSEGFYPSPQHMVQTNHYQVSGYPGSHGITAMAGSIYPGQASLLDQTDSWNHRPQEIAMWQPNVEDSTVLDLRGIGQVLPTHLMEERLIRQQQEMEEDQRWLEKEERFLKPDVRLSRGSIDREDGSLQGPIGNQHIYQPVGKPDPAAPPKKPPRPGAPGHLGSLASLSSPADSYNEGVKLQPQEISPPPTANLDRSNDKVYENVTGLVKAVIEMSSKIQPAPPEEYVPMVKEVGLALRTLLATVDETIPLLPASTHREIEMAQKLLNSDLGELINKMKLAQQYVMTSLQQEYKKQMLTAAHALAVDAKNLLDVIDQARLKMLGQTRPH

Experiment [2] concerns the target T1, FAK. The experiment is described as follows: FAK Degradation Assay (Western blot, FAK/GAPDH). In kind it is cell-based. Conditions: MDA-MB-231 cells, 24 h treatment, Western blot normalized to DMSO; for DC50: read-out: DC50 (half-maximal degradation concentration), FAK Degradation; for Dmax: read-out: Dmax (maximal degradation), FAK Degradation. As to the method: H2122 (4×10^5), MIA PaCa-2 (6×10s), or MDA-MB-231 cells (6×10^5) per well were seeded into a 6-well plate containing 2 mL of complete culture medium (RPMI-1640 for H2122 and MDA-MB-231, and DMEM/F12 for MIA PaCa-2, supplemented with 10% FBS and 1% penicillin/streptomycin). The cells were cultured overnight at 37° C. in the presence of 5% C02 before treated with a compound in a series of concentrations for 24 h. The cells were then washed with ice-cold Dulbecco's phosphate-buffered saline (DPBS). A radioimmuno-precipitation assay (RIPA) buffer was added to lyse the cells on ice for 20 min. The cells were then scrapped using cell scraper and collected in a 1.5 mL tube, which was centrifuged at 14,000 g and 4° C. for 15 min. The supernatant was collected and the total protein concentration of each sample was determined using a PIERCE™ BCA protein assay kit. The supernatant was diluted to the same protein concentration with the RIPA buffer after the BCA assay. Samples of the same protein amount were mixed with 4× a lithium dodecyl sulfate (LDS) sample buffer and boiled at 95° C. for 5 min. The denatured samples were used for electrophoresis.
For Western blot, the same volume containing ˜50 μg protein for each sample was loaded onto 4-12% Bis-Tris protein gel. The gel was run at 80 V for 0.5 h and at 120 V for 1 h. When the electrophoresis was completed, an IBLOT™ 2 gel transfer device was used to transfer FAK and GAPDH proteins at 20 V for 7 min. All the membranes were blocked in 5% nonfat dry milk in a TBST buffer at RT for 1 h and then incubated with primary antibodies (anti-FAK and anti-GAPDH) in a TBST buffer containing 5% BSA at 4° C. overnight. The membranes were washed with the TBST buffer and then incubated with secondary antibodies (goat anti-rabbit IgG H&L for FAK and goat anti-mouse IgG H&L for GAPDH) at room temperature for 1 h. Blots were visualized using an IMAGEQUANT™ LAS-4000. The chemiluminescent signals from ECL™ Western blotting reagents were captured. The band integrated intensity from each 16-bit blot image was used for quantitation. The FAK/GAPDH signal ratios of each sample were normalized using DMSO as a control and the normalized data for each compound were used to obtain its half-maximal degradation concentration (DC50) and maximal degradation (Dmax).
Target sequence in this assay (Q05397 whole entry): as the sequence (Q05397 whole entry, species assumed) above
A general note: A western blot detects proteins with antibodies after separation by electrophoresis.

As usually defined, the IC50 is the midpoint of a concentration-inhibition curve. A word on the Dmax: it is the largest share of the target that was removed. As to `CN(c1nccnc1CNc1nc(Nc2ccc(CNC3CCN(CC4CCN(c5ccc6c(c5)C(=O)N(C5CCC(=O)NC5=O)C6=O)CC4)CC3)cc2)ncc1C(F)(F)F)S(C)(=O)=O` (stereo not drawn) [Compound A6, N-(3-(((2-((4-(((1-((1-(2-(2,6-Dioxopiperidin-3-yl)-1,3-dioxoisoindolin-5-yl)-piperidin-4-yl)methyl)piperidin-4-yl)amino)methyl)phenyl)amino)-5-(trifluoromethyl)pyrimidin-4-yl)amino)methyl)pyrazin-2-yl)-N-methylmethanesulfonamide], the IC50 in experiment [1] was found to be 0.39 nM. Moreover, in experiment [2], the DC50 was 2.5 nM and the Dmax came to 99%.
On to `Cc1cc(OCCOCCOCCOc2ccc3c(c2)C(=O)N(C2CCC(=O)NC2=O)C3=O)ccc1Nc1ncc(C(F)(F)F)c(NCc2cccc(P(C)(C)=O)c2)n1` (stereo not drawn) [Compound A3, 5-(2-(2-(2-(4-((4-((3-(Dimethylphosphoryl)benzyl)amino)-5-(trifluoromethyl)-pyrimidin-2-yl)amino)-3-methylphenoxy)ethoxy)ethoxy)ethoxy)-2-(2,6-dioxopiperidin-3-yl)-isoindoline-1,3-dione], for which the IC50 in experiment [1] turned out to be 223 nM. Moreover, in experiment [2], the DC50 came out at 1980 nM and the Dmax came to 100%.
For `CN(c1nccnc1CNc1nc(Nc2ccc(CNC3CCN(c4ccc5c(c4)C(=O)N(C4CCC(=O)NC4=O)C5=O)CC3)cc2)ncc1C(F)(F)F)S(C)(=O)=O` (stereo not drawn) [Compound A7, N-(3-(((2-((4-(((1-(2-(2,6-Dioxopiperidin-3-yl)-1,3-dioxoisoindolin-5-yl)-piperidin-4-yl)amino)methyl)phenyl)amino)-5-(trifluoromethyl)pyrimidin-4-yl)amino)methyl)-pyrazin-2-yl)-N-methylmethanesulfonamide], the IC50 in experiment [1] was 0.47 nM. For the same compound, in experiment [2], the DC50 was 0.6 nM and the Dmax is 99%.
For `CN(c1nccnc1CNc1nc(Nc2ccc(C(=O)N3CCC(N4CCN(c5ccc6c(c5)C(=O)N(C5CCC(=O)NC5=O)C6=O)CC4)CC3)cc2)ncc1C(F)(F)F)S(C)(=O)=O` (stereo not drawn) [Compound A5, N-(3-(((2-((4-(4-(4-(2-(2,6-dioxopiperidin-3-yl)-1,3-dioxoisoindolin-5-yl)-piperazin-1-yl)piperidine-1-carbonyl)phenyl)amino)-5-(trifluoromethyl)pyrimidin-4-yl)amino)-methyl)pyrazin-2-yl)-N-methylmethanesulfonamide], in experiment [1], the half-inhibitory concentration (IC50) worked out at 1.8 nM. Further, in experiment [2], the DC50 came out at 1.4 nM and the greatest degradation seen (Dmax) turned out to be 89%.
For `CN(c1nccnc1CNc1nc(Nc2cccc(C(=O)N3CC(OC4CCN(c5ccc6c(c5)C(=O)N(C5CCC(=O)NC5=O)C6=O)CC4)C3)c2)ncc1C(F)(F)F)S(C)(=O)=O` (stereo not drawn) [Compound A13, N-(3-(((2-((3-(3-((1-(2-(2,6-dioxopiperidin-3-yl)-1,3-dioxoisoindolin-5-yl)-piperidin-4-yl)oxy)azetidine-1-carbonyl)phenyl)amino)-5-(trifluoromethyl)pyrimidin-4-yl)-amino)methyl)pyrazin-2-yl)-N-methylmethanesulfonamide], in experiment [2], the DC50 was 1.4 nM and the Dmax came to 94%.
For the compound `CN(c1cccc(CNc2cc(Nc3ccc(CNC4CCN(c5ccc6c(c5)C(=O)N(C5CCC(=O)NC5=O)C6=O)CC4)cc3)ncc2C(F)(F)F)c1)S(C)(=O)=O` (stereo not drawn) [Compound A16, N-(3-(((2-((4-(((1-(2-(2,6-Dioxopiperidin-3-yl)-1,3-dioxoisoindolin-5-yl)-piperidin-4-yl)amino)methyl)phenyl)amino)-5-(trifluoromethyl)pyridin-4-yl)amino)methyl)-phenyl)-N-methylmethanesulfonamide], in experiment [2], the DC50 is 2.7 nM and the Dmax is 93%.
For `CNC(=O)c1ccccc1Nc1cc(Nc2ccc(C(=O)NC3CCN(c4ccc5c(c4)C(=O)N(C4CCC(=O)NC4=O)C5=O)CC3)cc2)ncc1C(F)(F)F` (stereo not drawn) [Compound A21, 2-((2-((4-((1-(2-(2,6-Dioxopiperidin-3-yl)-1,3-dioxoisoindolin-5-yl)piperidin-4-yl)carbamoyl)phenyl)amino)-5-(trifluoromethyl)pyridin-4-yl)amino)-N-methylbenzamide] the same measures were 1.3 nM and 93%.
For `CN(c1nccnc1CNc1nc(Nc2cccc(C(=O)NC3CCN(CC4CCN(c5ccc6c(c5)C(=O)N(C5CCC(=O)NC5=O)C6=O)CC4)CC3)c2)ncc1C(F)(F)F)S(C)(=O)=O` (stereo not drawn) [Compound A10, N-(1-((1-(2-(2,6-Dioxopiperidin-3-yl)-1,3-dioxoisoindolin-5-yl)piperidin-4-yl)-methyl)piperidin-4-yl)-3-((4-(((3-(N-methylmethylsulfonamido)pyrazin-2-yl)methyl)amino)-5-(trifluoromethyl)pyrimidin-2-yl)amino)benzamide] the same measures were 2.1 nM and 98%.
The matching figures for `CN1Cc2cccc(Oc3nc(Nc4ccc(CN[C@@H]5CCN(c6ccc7c(c6)C(=O)N(C6CCC(=O)NC6=O)C7=O)C5)c(F)c4)ncc3C(F)(F)F)c2C1=O` (stereo partly drawn) [Compound A57, 2-(2,6-Dioxopiperidin-3-yl)-5-((R)-3-((2-fluoro-4-((4-((2-methyl-3-oxoisoindolin-4-yl)oxy)-5-(trifluoromethyl)pyrimidin-2-yl)amino)benzyl)amino)pyrrolidin-1-yl)isoindoline-1,3-dione]: 1 nM and 86%.
Consider `CNC(=O)c1ccccc1Nc1cc(Nc2cc(F)c(CNC3CCN(c4ccc5c(c4)C(=O)N(C4CCC(=O)NC4=O)C5=O)CC3)cc2OC)ncc1C(F)(F)F` (stereo not drawn) [Compound A54, 2-((2-((4-(((1-(2-(2,6-Dioxopiperidin-3-yl)-1,3-dioxoisoindolin-5-yl)piperidin-4-yl)amino)methyl)-5-fluoro-2-methoxyphenyl)amino)-5-(trifluoromethyl)pyridin-4-yl)amino)-N-methylbenzamide], for which, in experiment [2], the DC50 is 0.98 nM and the Dmax is 96%.
`CN(c1ccccc1CNc1cc(Nc2ccc(CNC3CCN(c4ccc5c(c4)C(=O)N(C4CCC(=O)NC4=O)C5=O)CC3)cc2)ncc1C(F)(F)F)S(C)(=O)=O` (stereo not drawn) [Compound A14, N-(2-(((2-((4-(((1-(2-(2,6-dioxopiperidin-3-yl)-1,3-dioxoisoindolin-5-yl)piperidin-4-yl)amino)methyl)phenyl)amino)-5-(trifluoromethyl)pyridin-4-yl)amino)methyl)phenyl)-N-methylmethanesulfonamide]: in experiment [2], the DC50 is 10 nM and the Dmax turned out to be 93%.
For `CN(c1nccnc1CNc1nc(Nc2ccc(OCCCCCCCOc3ccc4c(c3)C(=O)N(C3CCC(=O)NC3=O)C4=O)cc2)ncc1C(F)(F)F)S(C)(=O)=O` (stereo not drawn) [Compound A9, N-(3-(((2-((4-((7-((2-(2,6-Dioxopiperidin-3-yl)-1,3-dioxoisoindolin-5-yl)oxy)-heptyl)oxy)phenyl)amino)-5-(trifluoromethyl)pyrimidin-4-yl)amino)methyl)pyrazin-2-yl)-N-methylmethanesulfonamide], in experiment [2], the DC50 is 14 nM and the Dmax amounted to 100%.
In the case of `CN(c1nccnc1CNc1nc(Nc2ccc(CNC3CCN(c4ccc(C5CCC(=O)NC5=O)cc4)CC3)cc2)ncc1C(F)(F)F)S(C)(=O)=O` (stereo not drawn) [Compound B1, N-(3-(((2-((4-(((1-(4-(2,6-Dioxopiperidin-3-yl)phenyl)piperidin-4-yl)amino)-methyl)phenyl)amino)-5-(trifluoromethyl)pyrimidin-4-yl)amino)methyl)pyrazin-2-yl)-N-methyl-methanesulfonamide], in experiment [2], the DC50 was 1.2 nM and the Dmax stood at 92%.

For the origin of these results see patent US20250214967A1, “FAK DEGRADERS, PHARMACEUTICAL COMPOSITIONS, AND THERAPEUTIC APPLICATIONS” (Berrybio (Shanghai) Limited, priority 2022, published 2025).
